From ChEMBL document CHEMBL3046874, “Synthesis and biological evaluation of chalcones and acetyl pyrazoline derivatives comprising furan nucleus as an antitubercular agents” (2012)

Columns and labels:
Assay type in all cases: functional
[1] = test system: Mycobacterium tuberculosis; assay: Growth inhibition of Mycobacterium tuberculosis H37Rv at 6.25 ug/ml by radiometric anlaysis; settings: read-out: GI
[2] = test system: Aspergillus niger; assay: Antifungal activity against Aspergillus niger ATCC 9029 after 7 days by agar plate method
[3] = test system: Proteus vulgaris; assay: Antibacterial activity against Proteus vulgaris ATCC 29905 after 24 hr by agar well diffusion method
[4] = test system: Escherichia coli; assay: Antibacterial activity against Escherichia coli ATCC 25922 after 24 hr by agar well diffusion method
[5] = test system: Priestia megaterium; assay: Antibacterial activity against Bacillus megaterium ATCC 14518 after 24 hr by agar well diffusion method
[6] = test system: Staphylococcus aureus; assay: Antibacterial activity against Staphylococcus aureus ATCC 25923 after 24 hr by agar well diffusion method
[7] = test system: Mycobacterium tuberculosis; assay: Growth inhibition of Mycobacterium tuberculosis H37Rv at 0.25 ug/ml by radiometric anlaysis; settings: read-out: GI

Structure (SMILES) | inhibition of growth at 6.25 µg/mL [1] | diameter of the inhibition zone (DIZ) [2] | inhibition zone (IZ) [3] | inhibition zone (IZ) [4] | inhibition zone (IZ) [5] | inhibition zone (IZ) [6] | inhibition of growth at 0.25 µg/mL [7]
CC(=O)N1N=C(c2cccc([N+](=O)[O-])c2)CC1c1ccc(-c2ccc(Cl)c(Cl)c2)o1 (configuration not stated) | 6% | 17 mm | 13 mm | 17 mm | 13 mm | 14 mm | 
CC(=O)N1N=C(c2ccc([N+](=O)[O-])cc2)CC1c1ccc(-c2ccc(Cl)c(Cl)c2)o1 (configuration not stated) | 19% | 13 mm | 14 mm | 14 mm | 16 mm | 12 mm | 
Cc1ccc(C(=O)/C=C/c2ccc(-c3ccc(Cl)c(Cl)c3)o2)cc1 |  | 13 mm | 14 mm | 19 mm | 22 mm | 13 mm | 
O=C(/C=C/c1ccc(-c2ccc(Cl)c(Cl)c2)o1)c1cccc([N+](=O)[O-])c1 |  | 17 mm | 17 mm | 11 mm | 19 mm | 16 mm | 
O=C(/C=C/c1ccc(-c2ccc(Cl)c(Cl)c2)o1)c1ccc([N+](=O)[O-])cc1 |  | 19 mm | 15 mm | 12 mm | 11 mm | 17 mm | 
CC(=O)N1N=C(c2ccccc2)CC1c1ccc(-c2ccc(Cl)c(Cl)c2)o1 (configuration not stated) | 0% | 13 mm | 17 mm | 18 mm | 17 mm | 20 mm | 
CC(=O)N1N=C(c2cccc(N)c2)CC1c1ccc(-c2ccc(Cl)c(Cl)c2)o1 (configuration not stated) | 4% | 17 mm | 15 mm | 15 mm | 14 mm | 13 mm | 
CC(=O)N1N=C(c2ccc(N)cc2)CC1c1ccc(-c2ccc(Cl)c(Cl)c2)o1 (configuration not stated) | 74% | 19 mm | 12 mm | 17 mm | 17 mm | 17 mm | 
CC(=O)N1N=C(c2ccc(Br)cc2)CC1c1ccc(-c2ccc(Cl)c(Cl)c2)o1 (configuration not stated) | 6% | 18 mm | 19 mm | 11 mm | 20 mm | 12 mm | 
CC(=O)N1N=C(c2ccc(Cl)cc2)CC1c1ccc(-c2ccc(Cl)c(Cl)c2)o1 (configuration not stated) | 17% | 21 mm | 18 mm | 19 mm | 21 mm | 16 mm | 
CC(=O)N1N=C(c2ccc(F)cc2)CC1c1ccc(-c2ccc(Cl)c(Cl)c2)o1 (configuration not stated) | 1% | 17 mm | 13 mm | 12 mm | 13 mm | 13 mm | 
CC(=O)N1N=C(c2ccccc2O)CC1c1ccc(-c2ccc(Cl)c(Cl)c2)o1 (configuration not stated) | 11% | 15 mm | 11 mm | 13 mm | 18 mm | 16 mm | 
COc1ccc(C2=NN(C(C)=O)C(c3ccc(-c4ccc(Cl)c(Cl)c4)o3)C2)cc1 (configuration not stated) | 0% | 19 mm | 14 mm | 20 mm | 12 mm | 19 mm | 
CC(=O)N1N=C(c2ccc(C)cc2)CC1c1ccc(-c2ccc(Cl)c(Cl)c2)o1 (configuration not stated) | 0% | 20 mm | 19 mm | 12 mm | 19 mm | 21 mm | 
O=C(/C=C/c1ccc(-c2ccc(Cl)c(Cl)c2)o1)c1ccccc1 |  | 19 mm | 15 mm | 19 mm | 20 mm | 14 mm | 
Nc1cccc(C(=O)/C=C/c2ccc(-c3ccc(Cl)c(Cl)c3)o2)c1 |  | 17 mm | 17 mm | 16 mm | 14 mm | 19 mm | 
Nc1ccc(C(=O)/C=C/c2ccc(-c3ccc(Cl)c(Cl)c3)o2)cc1 |  | 18 mm | 12 mm | 13 mm | 17 mm | 12 mm | 
O=C(/C=C/c1ccc(-c2ccc(Cl)c(Cl)c2)o1)c1ccc(Br)cc1 |  | 21 mm | 16 mm | 20 mm | 21 mm | 19 mm | 
O=C(/C=C/c1ccc(-c2ccc(Cl)c(Cl)c2)o1)c1ccc(Cl)cc1 |  | 14 mm | 15 mm | 14 mm | 15 mm | 20 mm | 
O=C(/C=C/c1ccc(-c2ccc(Cl)c(Cl)c2)o1)c1ccc(F)cc1 |  | 14 mm | 14 mm | 16 mm | 17 mm | 12 mm | 
O=C(/C=C/c1ccc(-c2ccc(Cl)c(Cl)c2)o1)c1ccccc1O |  | 18 mm | 11 mm | 14 mm | 12 mm | 16 mm | 
COc1ccc(C(=O)/C=C/c2ccc(-c3ccc(Cl)c(Cl)c3)o2)cc1 |  | 19 mm | 19 mm | 12 mm | 13 mm | 20 mm | 
CC1(C)S[C@@H]2[C@H](NC(=O)[C@H](N)c3ccc(O)cc3)C(=O)N2[C@H]1C(=O)O [AMOXICILLIN] |  | 0 mm | 20 mm | 18 mm | 24 mm | 22 mm | 
CC1(C)S[C@@H]2[C@H](NC(=O)[C@H](N)c3ccccc3)C(=O)N2[C@H]1C(=O)O [AMPICILLIN] |  | 0 mm | 17 mm | 19 mm | 22 mm | 20 mm | 
COC1=CC(=O)C[C@@H](C)[C@]12Oc1c(Cl)c(OC)cc(OC)c1C2=O [GRISEOFULVIN] |  | 26 mm | 0 mm | 0 mm | 0 mm | 0 mm | 
CCn1cc(C(=O)O)c(=O)c2cc(F)c(N3CCNCC3)cc21 [NORFLOXACIN] |  | 0 mm | 21 mm | 20 mm | 23 mm | 19 mm | 
CC1(C)S[C@@H]2[C@H](NC(=O)Cc3ccccc3)C(=O)N2[C@H]1C(=O)O [PENICILLIN G] |  | 0 mm | 23 mm | 22 mm | 25 mm | 24 mm | 
CO[C@H]1/C=C/O[C@@]2(C)Oc3c(C)c(O)c4c(O)c(c(/C=N/N5CCN(C)CC5)c(O)c4c3C2=O)NC(=O)/C(C)=C\C=C\[C@H](C)[C@H](O)[C@@H](C)[C@@H](O)[C@@H](C)[C@H](OC(C)=O)[C@@H]1C [RIFAMPIN] |  |  |  |  |  |  | 98%
